Data taken from EP3449978A1, “INHIBITORS OF ARYL HYDROCARBON RECEPTOR FOR TREATING SOFT-TISSUE SARCOMA AND PREVENTING NEUROFIBROMA GROWTH AND/OR TRANSFORMATION TO MALIGNANT PERIPHERAL NERVE SHEATH TUMORS” (UNIVERSITE PARIS DESCARTES, priority 2017, dated 2019).

Assays:
Type in all cases: cell-based, human
[1] = system: AhR; test: Quantitative RT-PCR of AhR target and cell death genes in 90-8 cells
Description: RT-qPCR were performed using primers recognizing specifically the genes indicated. […] The total RNA was then extracted from these cells. […] Quantitative real-time PCR experiments were performed using primers recognizing CYP1A1 and CYP1 B1. *p<0.05, **p<0.01, ***p<0.001 by students t-test. • B, Human MPNST cell line (90-8) was incubated with AhR antagonist CH-223191 (1, 5, 10, 50 and 100 µM) during 48h and 72h. […] E, Total RNA was extracted from 90-8 cell line. Quantitative real-time PCR experiments were performed using primers recognizing PUMA, GADD45 and IL1β. The RT-PCR was normalized using 26S RNA. Data represent the mean+/-SEM of at least 3 independent experiments. *p<0.05, **p<0.01, **p<0.001, by Student's t test.

[2] = system: AhR; test: Quantitative RT-PCR of AhR pathway genes in STS26T cells; conditions: TMF 10µM, CH-223191 50µM, versus DMSO (Fig. 2C)
Description: • Figure 1: AHR signaling pathway is activated in Dermal and Plexiform Neurofibromas, and MPNST. • A, Total RNA was isolated from patients having Dermal Neurofibromas (n=8), Plexiform Neurofibromas (n=16) and […]=14). RT-qPCR were performed using primers recognizing specifically the genes indicated. […] Kruskal Wallis H test was used to compare MPNST vs Plexiform Neurofibromas vs Dermal Neurofibromas. • B and B', Representative immunohistochemical study of AhR in a case of MPNST. Formalin fixed, paraffin embedded MPNST samples were stained with Hematoxylin-eosin-saffron (HES) and antibody recognizing AhR has been used to detect AhR. A strong nuclear AhR staining is detected in a proportion of tumor cells while intra-tumoral vessels (arrows) whereas fibroblasts in a fibrous septa (*) taken as internal negative controls are not stained. • Figure 2: AhR inhibition induced death of MPNST cell lines (ST[…]) by apoptosis. • A, ST[…] cell line was reverse transfected with either non-transfected (NT) or siRNA (10 nM). The total RNA was then extracted from these cells. Quantitative real-time PCR experiments were performed using primers recognizing AhR, AHRR, ARNT, CYP1A1 and CYP1 B1. *p<0.05, by non-parametric Student's t-test. • B, Flow cytometry has been conducted to determine the percentage of cell population of living cells, apoptotic cells, late apoptosis and dead. […]

[3] = system: 90-8 cells; test: In vitro cytotoxicity assay (WST1 assay) in 90-8 cells; conditions: 50 µM, WST1 assay (Fig. 3B)
Description: 90-8 cells were seeded in triplicate on 96-well plates. Cells were treated with either CH-223191 or 0.1% DMSO. Cytotoxicity was quantified 48 and 72 hours after treatment using WST1 assay (Roche). Relative cytotoxicity was determined as ratio of absorbance at 450 nm of cells treated with CH-223191 versus cells treated with DMSO. IC50 values corresponding to concentrations associated to 50% of cell viability after 72 hours of continuous exposure were determined.

[4] = system: STS26T cells; test: Annexin V / PI flow cytometry in STS26T cells
Description: • Figure 1: AHR signaling pathway is activated in Dermal and Plexiform Neurofibromas, and MPNST. • A, Total RNA was isolated from patients having Dermal Neurofibromas (n=8), Plexiform Neurofibromas (n=16) and MPNST (n=14). RT-qPCR were performed using primers recognizing specifically the genes indicated. Table indicates median [range] mRNA levels. mRNA levels were normalized such that the median value of the dermal neurofibromas was 1. Kruskal Wallis H test was used to compare MPNST vs Plexiform Neurofibromas vs Dermal Neurofibromas. • B and B', Representative immunohistochemical study of AhR in a case of MPNST. Formalin fixed, paraffin embedded MPNST samples were stained with Hematoxylin-eosin-saffron (HES) and antibody recognizing AhR has been used to detect AhR. A strong nuclear AhR staining is detected in a proportion of tumor cells while intra-tumoral vessels (arrows) whereas fibroblasts in a fibrous septa (*) taken as internal negative controls are not stained. • Figure 2: AhR inhibition induced death of MPNST cell lines (STS26T) by apoptosis. • A, STS26T cell line was reverse transfected with either non-transfected (NT) or siRNA (10 nM). The total RNA was then extracted from these cells. Quantitative real-time PCR experiments were performed using primers recognizing AhR, AHRR, ARNT, CYP1A1 and CYP1 B1. *p<0.05, by non-parametric Student's t-test. • B, Flow cytometry has been conducted to determine the percentage of cell population of living cells, apoptotic cells, late apoptosis and dead. After 72h of medium change, cells are stained with Annexin and PI to detect the apoptosis and necrosis. Results represent the means +/- SEM of at least four independent experiments. *p<0.05, by non-parametric Student's t-test. • C, Total RNA was extracted from MPNST cell line STS26T treated either with TMF (10µM) and CH-223191 (50µM) or DMSO. Quantitative real-time PCR experiments were performed using primers recognizing CYP1A1, IL1β. The RT-PCR was normalized using TBP mRNA. Data represent the mean +/- SEM of at least 3 independent experiments. *p<0.05, by Student's t-test. • D, Human STS26T cell line was treated with either AHR antagonists CH-223191 (10µM and 50µM) or TMF (10µM) or DMSO. After 48h/72h of medium change, cells are stained with Annexin V and Propidium Iodide (PI) to detect apoptosis and necrosis. Flow cytometry has been conducted to determine the percentage of cell population of living cells (Annexin V-/PI-), apoptotic cells state (Annexin V+/PI-), late apoptosis state cells (Annexin V+/PI+) and dead cells (Annexin V-/PI+). […] Quantitative real-time PCR experiments were performed using primers recognizing CYP1A1 and CYP1 B1. *p<0.05, **p<0.01, ***p<0.001 by students t-test. • B, Human MPNST cell line (90-8) was incubated with AhR antagonist CH-223191 (1, 5, 10, 50 and 100 µM) during 48h and 72h. Cell viability was analyzed using WST1 assay. **p<.01, by Bonferroni's post hoc tests after two-way ANOVA when compared with DMSO. • C - D, Percentage of cell population of apoptotic (Annexin V+/PI-), dead (Annexin V-/PI+), necrotic (Annexin V+/PI+) and living (Annexin V-/PI-) cells were analyzed using flow cytometry. […] Quantitative real-time PCR experiments were performed using primers recognizing PUMA, GADD45 and IL1β. […]

[5] = system: 90-8 cells; test: Annexin V / PI flow cytometry in 90-8 cells; conditions: 50µM, 48h and 72h, Annexin V and PI staining (Fig. 3C, 3D)
Description: • Figure 1: AHR signaling pathway is activated in Dermal and Plexiform Neurofibromas, and MPNST. • A, Total RNA was isolated from patients having Dermal Neurofibromas (n=8), Plexiform Neurofibromas (n=16) and MPNST (n=14). RT-qPCR were performed using primers recognizing specifically the genes indicated. Table indicates median [range] mRNA levels. mRNA levels were normalized such that the median value of the dermal neurofibromas was 1. Kruskal Wallis H test was used to compare MPNST vs Plexiform Neurofibromas vs Dermal Neurofibromas. • B and B', Representative immunohistochemical study of AhR in a case of MPNST. […] A strong nuclear AhR staining is detected in a proportion of tumor cells while intra-tumoral vessels (arrows) whereas fibroblasts in a fibrous septa (*) taken as internal negative controls are not stained. • Figure 2: AhR inhibition induced death of MPNST cell lines (STS26T) by apoptosis. • A, STS26T cell line was reverse transfected with either non-transfected (NT) or siRNA (10 nM). […] Quantitative real-time PCR experiments were performed using primers recognizing AhR, AHRR, ARNT, CYP1A1 and CYP1 B1. *p<0.05, by non-parametric Student's t-test. • B, Flow cytometry has been conducted to determine the percentage of cell population of living cells, apoptotic cells, late apoptosis and dead. […]

SMILES	expression of IL1β ([1]; 90-8 cells (Fig. 3E))	expression of PUMA and GADD45 genes ([1]; 90-8 cells (Fig. 3E))	expression of the classical AhR target genes: CYP1A1 and CYP1B1 ([1]; 90-8 cells, 50 µM (Fig. 3A))	expression of AhR target gene: CYP1A [2]	decreased 90-8 cell viability [3] [%]	cell death, apoptosis and necrosis ([4]; STS26T, 50µM at 48h and 72h, Annexin V and PI staining (Fig. 2D))	number of dead cells, apoptosis and necrosis [5]	effect on STS26T cell death ([4]; 10µM at 48h and 72h, compared with CH-223191)	cells necrotic ([4]; STS26T, 10µM, 72h) [%]	cells underwent apoptosis ([4]; STS26T, 10µM, 72h) [%]	decrease of cell viability ([4]; STS26T, 10µM, 72h) [%]
Cc1ccccc1N=Nc1ccc(NC(=O)c2ccnn2C)c(C)c1 [CH-223191]	reduced	enhanced	inhibited	inhibited	50	increased cell death and enhanced apoptosis and necrosis	increased the number of dead cells and enhanced apoptosis and necrosis				
COc1ccc(-c2cc(=O)c3cc(OC)ccc3o2)c(OC)c1 [TMF, 6,2',4',-trimethoxyflavone]				inhibited				more potent effect than CH-223191	30	20	50
